This note sets out measurements from patent publication US12030896B2, “PIKfyve inhibitors” (Mayo Foundation for Medical Education and Research, priority 2018, dated 2024).

In the experiment the test system is U251. The experiment is described as follows: U251 Vacuolization Assay (24h). It is filed as cell-based. Particulars: Homo sapiens, U-251. The procedure:
As used herein the term “EC50 (μM)” refers to the μM concentration of a compound that is required for 50% activity in a vacuolization assay.
Example A—U251 Vacuolization Assay Data (24h) for Compounds of Examples 8-56
Broadly, the EC50 is the concentration giving half of the maximal effect. Take `Cc1ccc(Nc2nc(N/N=C/c3ccccn3)nc(N3CCOCC3)n2)cc1` [Example 43, [4-Morpholin-4-yl-6-(N′-pyridin-2-ylmethylene-hydrazino)-[1,3,5]triazin-2-yl]-p-tolyl-amine]: the EC50 fell in the range of 1 to 10 µM. As for `Cc1ccc(Nc2nc(N/N=C/c3cc4ccccc4[nH]3)nc(N3CCOCC3)n2)cc1` [Example 44, {4-[N′-(1H-Indol-2-ylmethylene)-hydrazino]-6-morpholin-4-yl-[1,3,5]triazin-2-yl}-p-tolyl-amine], the EC50 fell in the range of 1 to 10 µM.

On to `Cc1ccc(Nc2nc(N/N=C/c3c[nH]c4ccccc34)nc(N3CCOCC3)n2)nc1` [Example 45, {4-[N′-(1H-Indol-3-ylmethylene)-hydrazino]-6-morpholin-4-yl-[1,3,5]triazin-2-yl}-(5-methyl-pyridin-2-yl)-amine], for which the EC50 is ≤ 1 µM. For `CS(=O)(=O)Nc1ccc(Nc2nc(N/N=C/c3c[nH]c4ccccc34)nc(N3CCOCC3)n2)cc1` [Example 46, (E)-N-(4-((4-(2-((1H-indol-3-yl)methylene)hydrazinyl)-6-morpholino-1,3,5-triazin-2-yl)amino)phenyl)methanesulfonamide], the EC50 was ≤ 1 µM.

For the compound `Cc1ccc(Nc2nc(N/N=C/c3c[nH]c4ccccc34)nc(N3CCc4ccccc4C3)n2)cc1` [Example 47, (E)-4-(2-((1H-Indol-3-yl)methylene)hydrazinyl)-6-(3,4-dihydroisoquinolin-2(1H)-yl)-N-(p-tolyl)-1,3,5-triazin-2-amine], the EC50 was ≤ 1 µM. To `Cc1ccc(Nc2nc(N/N=C/c3c[nH]c4ccccc34)nc(N3CCOc4ccccc43)n2)cc1` [Example 48, (E)-4-(2-((1H-Indol-3-yl)methylene)hydrazinyl)-6-(2H-benzo[b][1,4]oxazin-4(3H)-yl)-N-(p-tolyl)-1,3,5-triazin-2-amine] belongs > 50 µM. Take `COC1CCN(c2nc(N/N=C/c3c[nH]c4ccccc34)nc(Nc3ccc(C)cc3)n2)CC1` [Example 49, (E)-4-(2-((1H-Indol-3-yl)methylene)hydrazinyl)-6-(4-methoxypiperidin-1-yl)-N-(p-tolyl)-1,3,5-triazin-2-amine]: the EC50 was > 50 µM. Then `Cc1ccc(Nc2nc(N/N=C/c3c[nH]c4ccccc34)nc(N3CCOCC3C)n2)cc1` (stereo not shown) [Example 50, (E)-4-(2-((1H-Indol-3-yl)methylene)hydrazinyl)-6-(3-methylmorpholino)-N-(p-tolyl)-1,3,5-triazin-2-amine], with ≤ 1 µM; and `COCCN(c1nc(N/N=C/c2c[nH]c3ccccc23)nc(Nc2ccc(C)cc2)n1)C(C)C` [Example 51, (E)-6-(2-((1H-Indol-3-yl)methylene)hydrazinyl)-N2-isopropyl-N2-(2-methoxyethyl)-N4-(p-tolyl)-1,3,5-triazine-2,4-diamine], with 1 to 10 µM; and `Cc1ccc(Nc2nc(N/N=C/c3c[nH]c4ccccc34)nc(N3C4CCC3COC4)n2)cc1` [Example 52, (E)-4-(2-((1H-Indol-3-yl)methylene)hydrazinyl)-6-(3-oxa-8-azabicyclo[3.2.1]octan-8-yl)-N-(p-tolyl)-1,3,5-triazin-2-amine], with 1 to 10 µM. To `Cc1ccc(Nc2nc(N/N=C\c3coc4ccccc34)nc(N3CCOCC3)n2)cc1` [Example 53, 4-(2-(benzofuran-3-ylmethylene)hydrazinyl)-6-morpholino-N-(p-tolyl)-1,3,5-triazin-2-amine] belongs > 50 µM. Turning to `Cc1ccc(Nc2nc(NCCc3c[nH]c4ccccc34)nc(N3CCOCC3)n2)cc1` [Example 54, N2-(2-(1H-indol-3-yl)ethyl)-6-morpholino-N4-(p-tolyl)-1,3,5-triazine-2,4-diamine], the EC50 is > 50 µM. Then `C(=N\Nc1nc(Nc2cccc3ccccc23)nc(N2CCOCC2)n1)/c1c[nH]c2ccccc12` [Example 55, (E)-4-(2-((1H-indol-3-yl)methylene)hydrazinyl)-6-morpholino-N-(naphthalen-1-yl)-1,3,5-triazin-2-amine], with ≤ 1 µM.
